Patent US8633204B2 (Pfizer Inc., priority 2006, dated 2014)

Legend:
[1] = system: PI3-K in BT20 cells (phosphorylation of AKT at serine 473); assay: PI3-Kα Cellular Assay (AKT Ser473 phosphorylation ELISA in BT20 cells); format: cell-based, human; conditions: 1 hour incubation
Summary of the method: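 Cells seeded overnight in 0.5% FBS, then exposed 1 h at 37 °C to an 11-concentration 1:3 dilution series, in duplicate.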

PI3-Kα = PI3-Kα (Mus musculus (Mouse), UniProt P42337); assay: PI3-Kα Biochemical Assay (fluorescence polarization kinase assay)
Sequence of PI3-Kα (P42337 whole entry, the tested form may be a part): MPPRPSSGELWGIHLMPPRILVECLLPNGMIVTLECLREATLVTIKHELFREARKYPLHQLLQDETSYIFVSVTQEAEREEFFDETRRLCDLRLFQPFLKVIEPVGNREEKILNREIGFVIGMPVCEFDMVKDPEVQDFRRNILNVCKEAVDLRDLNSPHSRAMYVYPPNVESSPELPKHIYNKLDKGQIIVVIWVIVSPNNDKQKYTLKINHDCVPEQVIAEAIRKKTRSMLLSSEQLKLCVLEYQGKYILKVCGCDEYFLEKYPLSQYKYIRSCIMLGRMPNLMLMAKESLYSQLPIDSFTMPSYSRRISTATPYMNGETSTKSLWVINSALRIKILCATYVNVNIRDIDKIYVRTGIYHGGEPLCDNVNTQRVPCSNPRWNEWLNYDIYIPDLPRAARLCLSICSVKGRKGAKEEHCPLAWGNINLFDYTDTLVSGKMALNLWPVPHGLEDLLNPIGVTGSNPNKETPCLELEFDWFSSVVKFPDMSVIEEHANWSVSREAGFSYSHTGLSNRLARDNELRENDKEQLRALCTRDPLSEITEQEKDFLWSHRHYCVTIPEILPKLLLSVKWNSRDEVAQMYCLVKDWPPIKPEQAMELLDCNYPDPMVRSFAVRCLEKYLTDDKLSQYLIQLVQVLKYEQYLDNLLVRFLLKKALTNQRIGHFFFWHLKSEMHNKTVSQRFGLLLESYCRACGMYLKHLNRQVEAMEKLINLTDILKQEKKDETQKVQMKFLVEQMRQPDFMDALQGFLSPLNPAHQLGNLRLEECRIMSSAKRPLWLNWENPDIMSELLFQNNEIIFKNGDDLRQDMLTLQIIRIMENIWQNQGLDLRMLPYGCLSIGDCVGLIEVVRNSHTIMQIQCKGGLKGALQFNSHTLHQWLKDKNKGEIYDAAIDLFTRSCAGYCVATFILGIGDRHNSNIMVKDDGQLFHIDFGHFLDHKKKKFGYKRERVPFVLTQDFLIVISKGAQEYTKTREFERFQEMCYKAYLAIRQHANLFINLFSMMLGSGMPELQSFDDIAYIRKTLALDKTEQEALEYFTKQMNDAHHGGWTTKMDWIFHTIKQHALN
Sequence of PI3-Kα (P26450 whole entry partner, the tested form may be a part): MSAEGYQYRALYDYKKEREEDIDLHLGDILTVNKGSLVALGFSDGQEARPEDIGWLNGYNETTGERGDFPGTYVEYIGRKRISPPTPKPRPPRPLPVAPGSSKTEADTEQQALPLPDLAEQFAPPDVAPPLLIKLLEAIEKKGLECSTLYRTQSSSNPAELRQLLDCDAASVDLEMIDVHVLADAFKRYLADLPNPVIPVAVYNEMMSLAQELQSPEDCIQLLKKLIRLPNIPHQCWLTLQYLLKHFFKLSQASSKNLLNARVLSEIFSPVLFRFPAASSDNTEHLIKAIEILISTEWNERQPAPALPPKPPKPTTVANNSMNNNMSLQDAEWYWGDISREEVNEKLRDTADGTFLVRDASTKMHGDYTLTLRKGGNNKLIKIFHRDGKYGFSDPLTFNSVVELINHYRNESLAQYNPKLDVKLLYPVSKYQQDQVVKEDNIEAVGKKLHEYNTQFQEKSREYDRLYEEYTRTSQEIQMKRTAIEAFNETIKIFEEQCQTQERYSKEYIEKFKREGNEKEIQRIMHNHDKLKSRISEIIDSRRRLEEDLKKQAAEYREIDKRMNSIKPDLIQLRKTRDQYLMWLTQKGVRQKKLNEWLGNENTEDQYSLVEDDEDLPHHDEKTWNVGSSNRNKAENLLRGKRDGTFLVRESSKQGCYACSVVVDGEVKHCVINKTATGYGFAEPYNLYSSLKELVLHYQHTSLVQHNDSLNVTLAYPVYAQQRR
Summary of the method: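 Co-expressed mouse p110/p85 PI3-Kα (4 nM stock) acting on PI(4,5)P2 (60 μM stock) with ATP/MgCl2 in HEPES pH 7.4 buffer, 35 min at room temperature, then EDTA stop. PI(3,4,5)P3 product detected by displacement of TAMRA-PIP3 from Grip1 PH domain (FP, 535/580 nm). IC50 from sigmoidal fit of % inhibition.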

[2] = Homo sapiens, BT-20, pAKT Ser473 ELISA

SMILES | IC50 [1, 2] [nM] | IC50 (PI3-Kα) [nM] | IC50 ([1]; pAKT Ser473 ELISA) [nM]
CNc1nc(C)c2cc(C(=O)Nc3cc[nH]n3)c(=O)n(C3CCCC3)c2n1 [Compound 250, 8-Cyclopentyl-4-methyl-2-methylamino-7-oxo-7,8-dihydro-pyrido[2,3-d]pyrimidine-6-carboxylic acid (1H-pyrazol-3-yl)-amide] | 16.4 | 2.34 | –
Cc1nc(N)nc2c1cc(C(=O)Nc1ccn[nH]1)c(=O)n2[C@H]1CC[C@H](O)CC1 [Compound 251, 2-Amino-8-(trans-4-hydroxycyclohexyl)-4-methyl-7-oxo-N-1H-pyrazol-5-yl-7,8-dihydropyrido[2,3-d]pyrimidine-6-carboxamide] | 28.3 | 0.59 | –
Cc1nc(N)nc2c1cc(-c1ccc(N3CCCC3)nc1)c(=O)n2[C@H]1CC[C@H](O)CC1 [Compound 253, 2-amino-8-(trans-4-hydroxycyclohexyl)-4-methyl-6-(6-pyrrolidin-1-ylpyridin-3-yl)pyrido[23-d]pyrimidin-7(8H)-one] | 4.92 | 19 | –
COc1ncc(-c2cc3c(C)nc(N)nc3n(C3CCCC3)c2=O)cn1 [Compound 255, 2-amino-8-cyclopentyl-6-(2-methoxypyrimidin-5-yl)-4-methylpyrido[23-d]pyrimidin-7(8H)-one] | 9.57 | 2 | –
Cc1nc(N)nc2c1cc(-c1cccc(CO)c1)c(=O)n2C1CCCC1 [Compound 256] | – | 3.1 | 20.2
Cc1cc(-c2cc3c(C)nc(N)nc3n(C3CCCC3)c2=O)cnc1N(C)C [Compound 257, 2-amino-8-cyclopentyl-6-[6-(dimethylamino)-5-methylpyridin-3-yl]-4-methylpyrido[23-d]pyrimidin-7(8H)-one] | 23.1 | 11 | –
Cc1nc(N)nc2c1cc(-c1ccc(N3CCCC3)nc1)c(=O)n2C1CCCC1 [Compound 258, 2-amino-8-cyclopentyl-4-methyl-6-(6-pyrrolidin-1-ylpyridin-3-yl)pyrido[23-d]pyrimidin-7(8H)-one] | 26.5 | 88 | –
COc1ncc(-c2cc3c(C)nc(N)nc3n(C3CCOCC3)c2=O)cn1 [Compound 259, 2-amino-6-(2-methoxypyrimidin-5-yl)-4-methyl-8-(tetrahydro-2H-pyran-4-yl)pyrido[23-d]pyrimidin-7(8H)-one] | 26.7 | 45 | –
Cc1nc(N)nc2c1cc(-c1cccc(CO)c1)c(=O)n2C1CCOCC1 [Compound 260, 2-amino-6-[3-(hydroxymethyl)phenyl]-4-methyl-8-(tetrahydro-2H-pyran-4-yl)pyrido[23-d]pyrimidin-7(8H)-one] | 33.2 | 3.9 | –
COc1ccc(-c2cc3c(C)nc(N)nc3n(C3CCCC3)c2=O)cc1F [Compound 262, 2-amino-8-cyclopentyl-6-(3-fluoro-4-methoxyphenyl)-4-methylpyrido[23-d]pyrimidin-7(8H)-one] | 45.9 | 15 | –
CCN(CC)C(=O)OCn1cc(-c2cc3c(C)nc(N)nc3n(C(C)C)c2=O)nn1 [Compound 263, (4-(2-Amino-8-isopropyl-4-methyl-7-oxo-7,8-dihydropyrido[2,3-d]pyrimidin-6-yl)-1H-1,2,3-triazol-1-yl)methyl diethylcarbamate] | 10000 | 3300 | –
Cc1nc(N)nc2c1cc(-c1c[nH]nn1)c(=O)n2C(C)C [Compound 264, 2-Amino-8-isopropyl-4-methyl-6-(1H-1,2,3-triazol-4-yl)pyrido[2,3-d]pyrimidin-7(8H)-one] | 556 | 62 | –
COc1ncc(-c2cc3c(C)nc(N)nc3n(C(C)C)c2=O)cn1 [Compound 266, 2-amino-8-isopropyl-6-(2-methoxypyrimidin-5-yl)-4-methylpyrido[2,3-d]pyrimidin-7(8H)-one] | 49.3 | 2.2 | –
Cc1nc(N)nc2c1cc(-c1cnc(O)nc1)c(=O)n2C1CCOCC1 [Compound 267, 2-Amino-6-(2-hydroxypyrimidin-5-yl)-4-methyl-8-(tetrahydro-2H-pyran-4-yl)pyrido[2,3-d]pyrimidin-7(8H)-one] | 10000 | 810 | –
Cc1nc(N)nc2c1cc(-c1cnc(O)nc1)c(=O)n2C(C)C [Compound 268, 2-amino-6-(2-hydroxypyrimidin-5-yl)-8-isopropyl-4-methylpyrido[2,3-d]pyrimidin-7(8H)-one] | 2520 | 300 | –
Cc1nc(N)nc2c1cc(C#N)c(=O)n2C1CCC1 [Compound 269, 2-Amino-8-cyclobutyl-4-methyl-7-oxo-7,8-dihydropyrido[2,3-d]pyrimidine-6-carbonitrile] | 2090 | 95 | –

SMILES | IC50 [1, 2] [nM] | IC50 (PI3-Kα) [nM] | IC50 ([1]; pAKT Ser473 ELISA) [nM]
C#Cc1cc2c(C)nc(N)nc2n(C2CCC2)c1=O [Compound 270, 2-Amino-8-cyclobutyl-6-ethynyl-4-methylpyrido[2,3-d]pyrimidin-7(8H)-one] | 657 | 110 | –
Cc1nc(N)nc2c1cc(-c1cnc3ccccc3c1)c(=O)n2[C@H]1CC[C@H](O)CC1 [Compound 271, 2-amino-8-(trans-4-hydroxycyclohexyl)-4-methyl-6-(quinolin-3-yl)pyrido[2,3-d]pyrirnidin-7(8H)-one] | 42 | 8.2 | –
COc1ccc(-c2cc3c(C)nc(NCC(F)F)nc3n([C@H]3CC[C@H](O)CC3)c2=O)cn1 [Compound 275, 2-(2,2-Difluoroethylamino)-8-(4-hydroxycyclohexyl)-6-(6-methoxypyridin-3-yl)-4-methylpyrido[2,3-d]pyrimidin-7(8H)-one] | 46.8 | 12 | –
CCNc1nc(C)c2cc(-c3cnc(OC)c(F)c3)c(=O)n([C@H]3CC[C@H](O)CC3)c2n1 [Compound 276, 2-(ethylamino)-6-(5-fluoro-6-methoxypyridin-3-yl)-8-(trans-4-hydroxycyclohexyl)-4-methylpyrido[2,3-d]pyrimidin-7(8H)-one] | 5.1 | 0.788 | –
CCNc1nc(C)c2cc(-c3cnc(OC)nc3)c(=O)n([C@H]3CC[C@H](O)CC3)c2n1 [Compound 277, 2-(ethylamino)-8-(trans-4-hydroxycyclohexyl)-6-(2-methoxypyrimidin-5-yl)-4-methylpyrido[2,3-d]pyrimidin-7(8H)-one] | 20.6 | 1.59 | –
CCn1nccc1NC(=O)c1cc2c(C)nc(N)nc2n([C@H]2CC[C@H](O)CC2)c1=O [Compound 278, 2-amino-N-(1-ethyl-1H-pyrazol-5-yl)-8-(trans-4-hydroxycyclohexyl)-4-methyl-7-oxo-78-dihydropyrido[23-d]pyrimidine-6-carboxamide] | 50.5 | 1.3 | –
Cc1nc(N)nc2c1cc(C(=O)Nc1ccn[nH]1)c(=O)n2C(C)C [Compound 279, 2-amino-8-isopropyl-4-methyl-7-oxo-N-1H-pyrazol-5-yl-7,8-dihydropyrido[2,3-d]pyrimidine-6-carboxamide] | 30.5 | 2.9 | –
CCn1cc(CNC(=O)c2cc3c(C)nc(NC)nc3n(C3CCCC3)c2=O)cn1 [Compound 281, 8-cyclopentyl-N-[(1-ethyl-1H-pyrazol-4-yl)methyl]-4-methyl-2-(methylamino)-7-oxo-7,8-dihydropyrido[2,3-d]pyrimidine-6-carboxamide] | > 10000 | 1200 | –
CNc1nc(C)c2cc(C(=O)Nc3ccon3)c(=O)n(C3CCCC3)c2n1 [Compound 283, 8-cyclopentyl-N-isoxazol-3-yl-4-methyl-2-(methylamino)-7-oxo-7,8-dihydropyrido[2,3-d]pyrimidine-6-carboxamide] | 72.2 | 5 | –
COc1ncc(-c2cc3c(C)nc(N)nc3n([C@H]3CC[C@H](OCCO)CC3)c2=O)cn1 [Compound 287, 2-amino-8-[trans-4-(2-hydroxyethoxy)cyclohexyl]-6-(2-methoxypyrimidin-5-yl)-4-methylpyrido[2,3-d]pyrimidin-7(8H)-one] | 38.9 | 2.2 | –
COc1ncc(-c2cc3c(C)nc(N)nc3n([C@H]3CC[C@H](OCCO)CC3)c2=O)cc1F [Compound 288, 2-amino-6-(5-fluoro-6-methoxypyridin-3-yl)-8-[trans-4-(2-hydroxyethoxy)cyclohexyl]-4-methylpyrido[2,3-d]pyrimidin-7(8H)-one] | 5.3 | 1.44 | –
Cc1nc(N)nc2c1cc(Br)c(=O)n2[C@H]1CC[C@H](OCCO)CC1 [Compound 291, 2-amino-6-bromo-8-[trans-4-(2-hydroxyethoxy)cyclohexyl]-4-methylpyrido[2,3-d]pyrimidin-7(8H)-one] | 96.5 | 55.2 | –
Cc1nc(N)nc2c1cc(-c1ccc(N(C)C)nc1)c(=O)n2[C@H]1CC[C@H](OCCO)CC1 [Compound 292] | 12.1 | 9.28 | –
COc1ncc(-c2cc3c(C)nc(N)nc3n([C@H]3CC[C@@H](OCCO)CC3)c2=O)cn1 [Compound 293, 2-amino-8-[cis-4-(2-hydroxyethoxy)cyclohexyl]-6-(2-methoxypyrimidin-5-yl)-4-methylpyrido[2,3-d]pyrimidin-7(8H)-one] | 15.3 | 5.31 | –
Cc1nc(N)nc2c1cc(-c1cn[nH]c1)c(=O)n2[C@H]1CC[C@@H](OCCO)CC1 [Compound 296, 2-amino-8-[cis-4-(2-hydroxyethoxy)cyclohexyl]-4-methyl-6-(1H-pyrazol-4-yl)pyrido[2,3-d]pyrimidin-7(8H)-one] | 9.1 | 29.7 | –
COc1ccc(-c2cc3c(C)nc(N)nc3n([C@H]3CC[C@H](OC[C@@H](O)CO)CC3)c2=O)cn1 [Compound 300, 2-amino-8-(trans-4-{[(2S)-2,3-dihydroxypropyl]oxy}cyclohexyl)-6-(6-methoxypyridin-3-yl)-4-methylpyrido[2,3-d]pyrimidin-7(8H)-one] | 13.2 | 6.82 | –
